Tests used:
Type in all cases: cell-based
Details in all cases: after 10, 20, 40 and 60 minutes at all dilutions 1:100, 1:200, 1:400, 1:800
Staphylococcus aureus = assay: Antimicrobial screening by agar dilution, St. Aereus
Experimental: (§1) The antibacterial properties of the synthesized compound (9-(6-flouro-2-hydroxypyridin-3-yl)-10-(2-hydroxyethyl)-3,6-diphenyl-3,4,6,7,9,10-hexahydroacridine1,8(2H,5H)-dione) were studied by the method of agar dilution. Test solutions of each compound was prepared in concentration of 1% using dimethylformamide as a solvent then they are diluted in physiological solution to obtain the final experimental dilutions 1:100, 1:200, 1:400, 1:800. The effect of these substances are compared with furacillin in a controllable study. The testing microbes used were gram positive bacteria Staphylococcus aureus, gram negative bacteria Pseudomonas aeruginosa and Escherichia coli and Candida albicans fungus. The experiments used for this survey were meat-pentonlu agar (EPA) for cultivation of bacteria and Saburo environment for the fungus. Each experiment used 1 mL of test solution on each plate […]. Two drops of emulsified with microbes feel were added. All experimental samples were taken from the agar after 10, 20, 40, 60 minutes in the environment on the basis of Patrk planted. The bacteria were cultivated at a temperature of 37° C. for 1 day and the mushroom was kept in a thermostat for […] at a temperature of 28° C. Then results were checked.

Escherichia coli = assay: Antimicrobial screening by agar dilution, E. Coli
Experimental: as §1

Pseudomonas aeruginosa = assay: Antimicrobial screening by agar dilution, Ps. Aeroqonaza
Experimental: as §1

Candida albicans = assay: Antimicrobial screening by agar dilution, Candida albicans
Experimental: as §1

Measured: inhibition activity (in words)

O=C1CC(c2ccccc2)CC2=C1C(c1cc3cc(F)ccc3nc1O)C1=C(CC(c3ccccc3)CC1=O)N2CCO (stereo not shown)
the most higher inhibition activity: all assays above

— US12168651B1, “9-(6-flouro-2-hydroxypyridin-3-yl)-10-(2-hydroxyethyl)-3,6-diphenyl-3,4,6,7,9,10-hexahydroacridine1,8(2H,5H)-dione as an antimicrobial compound” (KING FAISAL UNIVERSITY, priority 2023, dated 2024)
